For series [1], the system named is Recombin ant provirus from the patient 6021959. The series is described as follows: microbe, parasite or virus in culture. It is filed as cell-based, HIV-1.
The subject of another series is Wild type pNL4-3. The series is described as follows: Antiviral activity (EC50), deCIPhR cell system, beta-galactosidase indicator cell readout. The class given is cell-based, HIV-1.
Series [2] relates to Recombin ant provirus from the patient 7007984. The experiment in a line: microbe, parasite or virus in culture. The class given is cell-based, HIV-1.
In series [3] the test system is NNRTI (RTMDR) 5 resistant. The series is described as follows: microbe, parasite or virus in culture. It is filed as cell-based, HIV-1. The conditions noted are these: Human immunodeficiency virus 1.
Series [4] in a line: Cytotoxicity, Alamar Blue Cell Viability Assay. The conditions noted are these: deciphr cells. Background: The colour change of resazurin is a common sign of viable cells or microbes.
In the next series the test system is Wild type #. The experiment in a line: Antiviral activity (EC50) in CEMA and CEM-T4 cells. It is filed as cell-based, HIV-1. Particulars: Human immunodeficiency virus 1; wild type # marked a,b = CEMA and CEM-T4 cells.
The next series has as its system NRTI (RTMC) resistant. The series is described as follows: microbe, parasite or virus in culture. It is filed as cell-based, HIV-1. Particulars: Human immunodeficiency virus 1.
Setting [5] is: recombinant provirus from patient 6021959, RT resistance mutations M41 L, E44D, T69D, L741, K103N, V108I, V118I, M184V, M230L, T215Y, G333E, read-out: EC50.
[6] abbreviates: HIV-1 wild type pNL4-3, cells per table title (deCIPhR, CEMA, CEM-T4), row has no cell mark, presumably deCIPhR, read-out: EC50.
Where [7] appears, read: recombinant provirus from patient 7007984, RT resistant mutations M41 L, K70R, A985, T215Y, read-out: EC50.
Setting [8] is: Human immunodeficiency virus 1, CEM-T4.

Molecules are shown by their SMILES. Like-named read-outs stand apart in the source and are kept apart here.

The term EC50 denotes the concentration at which the effect is half-maximal. For `Cc1cn([C@H]2C[C@H](N=[N+]=[N-])[C@@H](COP(=O)(O)O)O2)c(=O)[nH]c1=O` [AZTM P, reference compound], the EC50 in series [1] (setting [5]) was found to be 1710 nM; in the series on Wild type pNL4-3 (setting [6]), 63 nM; in series [2] (setting [7]), 1030 nM.

Regarding `Cc1cn([C@H]2C[C@H](F)[C@@H](COP(=O)(O)O)O2)c(=O)[nH]c1=O` [FLT MP, reference compound], the values for the EC50 (in series [1] (setting [5]); in the series on Wild type pNL4-3 (setting [6]); in series [2] (setting [7])) were 30 nM, 10 nM and 18 nM, respectively.

As usually defined, the CC50 is the concentration giving 50% cytotoxicity. Read a high CC50 as better tolerance by the cells. On to `COCCCCCCCCCCCC(=O)OC[C@H]1O[C@@H](n2cc(C)c(=S)[nH]c2=O)C[C@@H]1F` [WA2 1, 1-(2,3-dideoxy-3-fluoro-5-O-(12-methoxydodecanoyl)-b-D-ribofuranosyl)-4-thiothymine], for which the EC50 in series [1] (Human immunodeficiency virus 1) came to 9260 nM; in the series on Wild type pNL4-3 (setting [8]), 269 nM; in series [3], 550 nM; in the series with Wild type #, 330 nM; in series [2] (Human immunodeficiency virus 1), 3150 nM; in the series with NRTI (RTMC) resistant it was 180 nM. In addition, the “cytotoxicity (CD50)” value with deCIPhR™ cell system is “not toxic”. Besides, the CC50 in series [4] was > 200000 nM.

As for `CCSCCCCCCCCCCCC(=O)OC[C@H]1O[C@@H](n2cc(C)c(=S)[nH]c2=O)C[C@@H]1F` [WA-2 2, 1-(2,3-dideoxy-5-O-(12-thioethyldodecanoyl)-3-fluoro-b-D-ribofuranosyl)-4-thiothymine], the EC50 in series [1] (Human immunodeficiency virus 1) stood at 10000 nM; with Wild type pNL4-3 (setting [8]) it was 998 nM; with Wild type #, 120 nM; in series [2] (Human immunodeficiency virus 1), 5920 nM; in the series on NRTI (RTMC) resistant, 75 nM. Moreover, the “cytotoxicity (CD50)” value in the series on deCIPhR™ cell system is listed as “not toxic”. In addition, the half-maximal cytotoxic concentration (CC50) in series [4] was > 200000 nM.

For `CCSCCCCCCCCCCC(=O)OC[C@H]1O[C@@H](n2cc(C)c(=S)[nH]c2=O)C[C@@H]1F` [WA-2 3, 1-(5-O-(2,3-dideoxy-11-thioethylundecanoyl)-3-fluoro-b-D-ribofuranosyl)-4-thiothymine], the EC50 in series [1] (Human immunodeficiency virus 1) was 5520 nM; with Wild type pNL4-3 (setting [8]), 965 nM; in series [3] it was 480 nM; in the series on Wild type #, 450 nM; with NRTI (RTMC) resistant, 450 nM. Besides, in the series with deCIPhR™ cell system, the “cytotoxicity (CD50)” value is recorded as “not toxic”. Further, the CC50 in series [4] is > 200000 nM.

Take `Cc1cn([C@H]2C[C@H](F)[C@@H](COC(=O)CCCCCCCCCCCN=[N+]=[N-])O2)c(=O)[nH]c1=S` [WA- 2 0, 1-(5-O-(12-azidododecanoyl)-2,3-dideoxy-3-fluoro-b-D-ribofuranosyl)-4-thi othymine]: the EC50 in series [1] (Human immunodeficiency virus 1) was 4640 nM; with Wild type pNL4-3 (setting [8]), 822 nM; in series [3], 100 nM; with Wild type #, 450 nM; in series [2] (Human immunodeficiency virus 1), 2880 nM; in the series on NRTI (RTMC) resistant it was ≤ 100000 nM. Further, in the series on deCIPhR™ cell system, the “cytotoxicity (CD50)” value was “not toxic”. In addition, the CC50 in series [4] is > 200000 nM.

As for `CCCCCCCCCCCCCC(=O)OC[C@H]1O[C@@H](n2cc(C)c(=S)[nH]c2=O)C[C@@H]1F` [WA- 18, 1-(2,3-dideoxy-3-fluoro-5-O-(12-tetradodecanoyl)-b-D-ribofuranosyl)-4-thio thymine], the 50% effective concentration (EC50) came out at 8340 nM in series [1] (Human immunodeficiency virus 1); 421 nM in the series with Wild type pNL4-3 (setting [8]); 45 nM in series [3]; 130 nM in the series with Wild type #; 2400 nM in series [2] (Human immunodeficiency virus 1); 150 nM in the series with NRTI (RTMC) resistant. Besides, the “cytotoxicity (CD50)” value in the series with deCIPhR™ cell system is “not toxic”. Further, the half-maximal cytotoxic concentration (CC50) in series [4] is > 200000 nM.

As for `Cc1cn([C@H]2C[C@H](F)[C@@H](COC(=O)CCCCCCCCCCCBr)O2)c(=O)[nH]c1=S` [WA- 19, 1-(5-O-(12-bromododecanoyl)-2.3-dideoxy-3-fluoro-b-D-ribofuranosyl)-4-th iothymine], the values for the EC50 (in series [1] (Human immunodeficiency virus 1); in the series with Wild type pNL4-3 (setting [8])) were 10000 nM and 710 nM, respectively. Also, the “cytotoxicity (CD50)” value in the series on deCIPhR™ cell system was “not toxic”. In addition, the cytotoxic concentration (CC50) in series [4] is > 200000 nM.

Source of the values: patent EP2402356A2, “Modified 2',3'-dideoxynucleosides for treatment infections caused by human immunodeficiency virus (HIV) multidrug resistant strains, method of their synthesis and the pharmaceutical agent containing these nucleosides” (Instytut Biochemii I Biofizyki Pan, priority 2010, dated 2012).
